Experimental data taken from US7230028B2, “Dimeric compounds and their use as anti-viral agents” (priority 2001, dated 2007).
≈ marks a conversion by molar mass, not a printed value. Where “and” joins values, the source holds several entries; their conditions need not be identical. Identical values can stand only once. Counter-ions that a name gives are not always drawn. Like-named read-outs stand apart in the source and are kept apart here.

Columns and labels:
B/Hong Kong/5/72 BVLV012 = assay: Plaque reduction assay (PRA) in MDCK cells; assay type: cell-based, influenza B; settings: for EC50: Influenza B virus, MDCK, read-out: EC50 PRA B/HongK
Description: (§1) Madin Darby Canine Kidney (MDCK) cells are seeded into six well tissue culture plates and grown to confluency via standard methods. Influenza viruses are diluted in a minimal volume of phosphate buffered saline supplemented with 0.2% bovine serum albumin to yield an estimated titre of 50–100 plaque forming units (pfu) per well. After adsorption to the MDCK cells for one hour at 37° C. in a 5% CO2 atmosphere the viral inocula is aspirated and replaced with viral growth media (minimal Eagle's media supplemented with BSA, trypsin and insulin/transferrin/selenium at optimal concentrations) containing sufficient agar or agarose (generally 1–2%) to cause the media to gel at room temperature and at 37° C. in a 5% CO2 atmosphere until plaques develop (generally 2–4 days). Plaques can be visualised with a suitable stain (e.g. 0.4% crystal violet in formal saline) before counting.

Influenza A/Sydney/5/97 = assay: Cytopathic effect (CPE) assay, inhibition of influenza virus replication in MDCK cells; assay type: cell-based; settings: up to 72 hours, MTT
A/WSN/33 BVLV09 (H1N1) = assay: Plaque reduction assay (PRA) in MDCK cells; assay type: cell-based, influenza A H1N1; settings: A/WSN/33 (H1N1)
Description: as §1

[1] = system: A/Sydney/5/97 BVLV015 (H3N2); assay: Plaque reduction assay (PRA) in MDCK cells; assay type: cell-based, influenza A H3N2; settings: A/Sydney/5/97 (H3N2)
Description: as §1

[2] = system: B/Yamanashi/166/98 BVLV007; assay: Plaque reduction assay (PRA) in MDCK cells; assay type: cell-based; settings: for EC50: Influenza B virus, MDCK
[3] = system: A/New Caledonia/20/99 BVLV008 (H1N1); assay: Plaque reduction assay (PRA) in MDCK cells; assay type: cell-based; settings: for EC50: Influenza A virus
[4] = system: A/Panama/2007/99 BVLV008 (H3N2); assay: Plaque reduction assay (PRA) in MDCK cells; assay type: cell-based; settings: for EC50: Influenza A virus
[5] = Rat lung retention assay (intra-tracheal dosing); assay type: in vivo; settings: for Mean (cmpd) / (cmpd): 0.1 mg/kg intra-tracheal; for (cmpd) / PCT AU01/01128 compound 3 ng/g: individual animal; for (cmpd): bis(trifluoroacetic acid salt)
Description: Rodents are anaesthetised and dosed with compound of interest by the intra-tracheal route at a dose volume of 0.8 ml/kg. The rodent is then held in the vertical position until full recovery is achieved. […] Any analytical method suitable for detection of this type of compound may be used. The time at which levels of compound fall below the sensitivity of the analytical techniques identified will determine the residency time of the compound in lung tissue.
Please note that all experiments included a co-dosed internal standard, namely compound 3 of International Patent Publication No. WO 02/20514, to permit comparison. The data are expressed as a ratio with respect to this compound, the structure of which is shown below.

Influenza B/Harbin/7/95 = assay: Cytopathic effect (CPE) assay, inhibition of influenza virus replication in MDCK cells; assay type: cell-based
[6] = system: A/Bayern/7/95 BVL006 (H1N1); assay: Plaque reduction assay (PRA) in MDCK cells; assay type: cell-based, influenza A H1N1; settings: A/Bayern/7/95 (H1N1)
Description: as §1

B/Victoria/1/67 = assay: Plaque reduction assay (PRA) in MDCK cells; assay type: cell-based, influenza B; settings: bis(trifluoroacetic acid salt)
[7] = system: A/Victoria/3/75 BVLV017 (H3N2); assay: Plaque reduction assay (PRA) in MDCK cells; assay type: cell-based; settings: Influenza A virus, MDCK; plaque reduction, A/Victoria/3/75 (H3N2); read-out: EC50 PRA A/Vic
[8] = rat, in vivo, 0.1 mg/kg, Mean (cmpd) ng/g
[9] = rat lung, co-dosed internal standard, 48 hrs

CC(=O)N[C@H]1[C@H]([C@H](OC(=O)NCCCCCCCCCCCCCNC(=O)O[C@@H]([C@@H]2OC(C(=O)O)=C[C@H](NC(=N)N)[C@H]2NC(C)=O)[C@H](O)CO)[C@H](O)CO)OC(C(=O)O)=C[C@@H]1NC(=N)N [Example 4, (2R,3R,4S)-3-(acetylamino)-2-{(1R,21R,22R)-21-((2R,3R,4S)-3-(acetylamino)-4-{[amino(imino)methyl]amino}-6-carboxy-3,4-dihydro-2H-pyran-2-yl)-1-[(1R)-1,2-dihydroxyethyl]-22,23-dihydroxy-3,19-dioxo-2,20-dioxa-4,18-diazatricos-1-yl}-4-{[amino(imino)methyl]amino}-3,4-dihydro-2H-pyran-6-carboxylic acid bis(trifluoroacetic acid salt)]
EC50 (B/Hong Kong/5/72 BVLV012): 0.06 ng/mL
ID50 A/Sydney/5/97 (Influenza A/Sydney/5/97): 0.1 ng/mL
EC50 (A/WSN/33 BVLV09 (H1N1); Influenza A virus, MDCK): < 0.0001 ng/mL
EC50 ([1]; Influenza A virus, MDCK, read-out: EC50 PRA A/Syd): < 0.0001 ng/mL
EC50 ([2]; read-out: EC50 PRA B/Yam, plaque reduction, B/Yamanashi/166/98): < 0.0001 ng/mL
EC50 ([3]; H1N1, MDCK, read-out: EC50 PRA A/New, plaque reduction, A/New Caledonia/20/99 (H1N1)): 0.043 ng/mL
EC50 ([4]; H3N2, MDCK, read-out: EC50 PRA A/Pan, plaque reduction, A/Panama/2007/99 (H3N2)): < 1e-05 ng/mL
Ratio Mean (lung) (cmpd)/PCT AU01/01128 compound 3 ([5]; rat, in vivo, 0.1 mg/kg, 48 h): 1.70
Ratio Mean (lung) (cmpd)/PCT AU01/01128 compound 3 ([5]; rat, in vivo, 0.1 mg/kg, 168 h): 1.48
concentration at 48 h [5, 8]: 1770 ng/g
concentration at 168 h [5, 8]: 756 ng/g
ID50 B/Harbin/7/95 (Influenza B/Harbin/7/95; up to 72 hours, MTT): 0.0001 µg/mL

CC(=O)N[C@H]1[C@H]([C@H](OC(=O)NCCCCCCCCCCCCCCNC(=O)O[C@@H]([C@@H]2OC(C(=O)O)=C[C@H](NC(=N)N)[C@H]2NC(C)=O)[C@H](O)CO)[C@H](O)CO)OC(C(=O)O)=C[C@@H]1NC(=N)N.O=C(O)C(F)(F)F.O=C(O)C(F)(F)F [Example 5]
EC50 PRA B/HongK (B/Hong Kong/5/72 BVLV012): 0.37 ng/mL
ID50 A/Sydney/5/97 (Influenza A/Sydney/5/97): 0.1 ng/mL
EC50 PRA A/WSN (A/WSN/33 BVLV09 (H1N1)): <0.0001 ng/mL
EC50 PRA A/Bay [6]: <0.0001 ng/mL
EC50 PRA A/Syd [1]: 0.032 ng/mL
EC50 PRA B/Yam ([2]; plaque reduction, B/Yamanashi/166/98): <0.0001 ng/mL
EC50 PRA A/New ([3]; plaque reduction, A/New Caledonia/20/99 (H1N1)): <0.0001 ng/mL
EC50 PRA B/Vic (B/Victoria/1/67): 0.1 ng/mL
EC50 PRA A/Pan ([4]; plaque reduction, A/Panama/2007/99 (H3N2)): 0.032 ng/mL
Mean (cmpd) ([5]; rat lung, 48 hrs): 4803 ng/g
Mean (cmpd) ([5]; rat lung, 168 hrs): 1798 ng/g
(cmpd) ([5]; rat lung, 48 hrs, 0.1 mg/kg): 3044 ng/g and 6268 ng/g and 5097 ng/g
(cmpd) ([5]; rat lung, 168 hrs, 0.1 mg/kg): 2750 ng/g and 1255 ng/g and 1388 ng/g
ID50 B/Harbin/7/95 (Influenza B/Harbin/7/95; molar): 0.26 M
ID50 B/Harbin/7/95 (Influenza B/Harbin/7/95; up to 72 hours, MTT): 0.0003 µg/mL

CCOC(=O)C1=C[C@@H](OC(CC)CC)[C@H](NC(C)=O)[C@@H](N)C1 [Oseltamivir]
EC50 (B/Hong Kong/5/72 BVLV012): 32 ng/mL (≈ 102 nM)
EC50 [7]: 0.11 ng/mL (≈ 0.352 nM)
EC50 ([2]; plaque reduction, B/Yamanashi/166/98, read-out: EC50 PRA B/Yam): 0.7 ng/mL (≈ 2.24 nM)
EC50 ([3]; MDCK, plaque reduction, A/New Caledonia/20/99 (H1N1), read-out: EC50 PRA A/New): 0.23 ng/mL (≈ 0.736 nM)
EC50 ([4]; MDCK, plaque reduction, A/Panama/2007/99 (H3N2), read-out: EC50 PRA A/Pan): 0.3 ng/mL (≈ 0.96 nM)

CC(=O)N[C@H]1[C@H]([C@H](OC(=O)NCCCCCCNC(=O)CN(CCN(CC(=O)NCCCCCCNC(=O)O[C@H](C(O)CO)[C@@H]2OC(C(=O)O)=C[C@H](NC(=N)N)[C@H]2NC(C)=O)CC(=O)NCCCCCCNC(=O)O[C@H](C(O)CO)[C@@H]2OC(C(=O)O)=C[C@H](NC(=N)N)[C@H]2NC(C)=O)CC(=O)NCCCCCCNC(=O)O[C@H](C(O)CO)[C@@H]2OC(C(=O)O)=C[C@H](NC(=N)N)[C@H]2NC(C)=O)[C@H](O)CO)OC(C(=O)O)=C[C@@H]1NC(=N)N (stereo partly drawn) [PCT AU01/01128 compound 3]
Mean (PCT AU01/01128 compound 3) [5, 9]: 1478 ng/g and 1368 ng/g and 1413 ng/g
PCT AU01/01128 compound 3 ng/g [5, 9]: 1098 ng/g and 1352 ng/g and 681 ng/g and 784 ng/g and 2046 ng/g and 1605 ng/g and 698 ng/g and 1901 ng/g and 1507 ng/g and 655 ng/g and 1840 ng/g and 1744 ng/g
PCT AU01/01128 compound 3 ng/g ([5]; rat lung, co-dosed internal standard, 168 hrs): 580 ng/g and 829 ng/g and 636 ng/g and 524 ng/g and 367 ng/g and 632 ng/g and 242 ng/g (2×) and 216 ng/g and 815 ng/g and 925 ng/g and 512 ng/g
concentration at 48 h ([5]; rat, in vivo, rat lung, co-dosed internal standard, 48 hrs, read-out: Mean (PCT AU01/01128 compound 3)): 1040 ng/g
